Assay results published in patent US9115137B2, “2,3,4,5-tetrahydro-1H-pyrido[4,3-B]indole compounds and methods of use thereof” (priority 2008, dated 2015).
Read-outs that look alike come from different tables or passages of the source.

What was measured:
[1] = target: T1, human recombinant histamine H1 receptor (Homo sapiens, UniProt P35367); experiment: Histamine H1 radioligand binding ([3H]Pyrilamine); details: read-out: Histamine Binding (1 μM) H1, percent inhibition of specific binding
T1 construct: expressed in transfected cells; host or cells: CHO cells
Method: To evaluate in radioligand binding assays the activity of compounds of the invention, human recombinant histamine H1 receptor expressed in Chinese hamster ovary (CHO) cells (De Backer, M. D. et al., Biochem. Biophys. Res. Comm. 197(3):1601, 1993) in a modified Tris-HCl buffer (50 mM Tris-HCl, pH 7.4, 2 mM MgCl2, 100 mM NaCl, 250 mM Sucrose) was used. Compounds of the invention were incubated with 1.2 nM [^3H]Pyrilamine for 180 minutes at 25° C. Non-specific binding was estimated in the presence of 1 μM pyrilamine. Receptor proteins were filtered and washed, the filters were then counted to determine [^3H]Pyrilamine specifically bound. Compounds were screened at 1 μM, using 1% DMSO as vehicle. Biochemical assay results are presented as the percent inhibition of specific binding in Table 5.

[2] = target: T2, human recombinant histamine H2 receptor (Homo sapiens, UniProt P25021); experiment: Histamine H2 radioligand binding ([125I]aminopotentidine); details: read-out: Histamine Binding (1 μM) H2, percent inhibition of specific binding
T2 construct: expressed in transfected cells; host or cells: CHO-K1 cells
Method: To evaluate in radioligand binding assays the activity of compounds of the invention, human recombinant histamine H2 receptor expressed in Chinese hamster ovary (CHO) K1 cells (Ruat, M., Proc. Natl. Acad. Sci. USA. 87(5):1658, 1990) in a 50 mM Phosphate buffer, pH 7.4 was used. Compounds of the invention were incubated with 0.1 nM [^125I]aminopotentidine for 120 minutes at 25° C. Non-specific binding was estimated in the presence of 3 μM Tiotidine. Receptor proteins were filtered and washed, the filters were then counted to determine [^125I]Aminopotentidine specifically bound. Compounds were screened at 1 μM, using 1% DMSO as vehicle. Biochemical assay results are presented as the percent inhibition of specific binding in Table 5.

[3] = target: T3, human recombinant adrenergic α1D receptor (Homo sapiens, UniProt P25100); experiment: Adrenergic α1D radioligand binding ([3H]Prozosin); details: read-out: Adrenergic (1 μM) α1D, percent inhibition of specific binding
T3 construct: expressed in transfected cells; host or cells: HEK-293 cells
T3 sequence (P25100 1-572): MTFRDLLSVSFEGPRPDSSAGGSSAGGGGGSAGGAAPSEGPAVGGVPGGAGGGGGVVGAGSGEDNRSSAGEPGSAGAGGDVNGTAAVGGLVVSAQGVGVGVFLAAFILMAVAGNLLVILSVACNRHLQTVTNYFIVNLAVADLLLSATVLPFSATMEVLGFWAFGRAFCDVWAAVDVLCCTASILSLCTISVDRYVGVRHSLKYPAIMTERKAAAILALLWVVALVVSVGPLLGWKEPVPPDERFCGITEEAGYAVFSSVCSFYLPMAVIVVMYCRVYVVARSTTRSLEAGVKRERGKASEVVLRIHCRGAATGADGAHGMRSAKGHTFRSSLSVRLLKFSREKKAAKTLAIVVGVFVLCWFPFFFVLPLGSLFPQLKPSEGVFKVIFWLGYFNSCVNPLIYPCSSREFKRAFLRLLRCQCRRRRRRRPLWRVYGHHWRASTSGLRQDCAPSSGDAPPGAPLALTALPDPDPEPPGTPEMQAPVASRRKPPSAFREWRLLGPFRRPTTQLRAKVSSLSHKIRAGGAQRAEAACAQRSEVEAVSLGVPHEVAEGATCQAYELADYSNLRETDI
Method: To evaluate in radioligand binding assays the activity of compounds of the invention, human recombinant adrenergic α1D receptor expressed in human embryonic kidney (HEK-293) cells (Kenny, B. A. et al. Br. J. Pharmacol. 115(6):981, 1995) in a 50 mM Tris-HCl buffer, pH 7.4, was used. Compounds of invention were incubated with 0.6 nM [^3H]Prozosin for 60 minutes at 25° C. Non-specific binding was estimated in the presence of 10 μM phentolamine. Receptor proteins were filtered and washed, the filters were then counted to determine [^3H]Prozosin specifically bound. Compounds were screened at 1 μM or lower, using 1% DMSO as vehicle. Biochemical assay results are presented as the percent inhibition of specific binding in Table 6.

[4] = target: T4, human recombinant serotonin (5-Hydroxytryptamine) 5-HT2C receptor (Homo sapiens, UniProt P28335); experiment: Serotonin 5-HT2C radioligand binding ([3H]Mesulergine); details: read-out: Serotonin (1 μM) 5-HT2C, percent inhibition of specific binding
T4 construct: expressed in transfected cells; host or cells: CHO-K1 cells
T4 sequence (P28335 33-458): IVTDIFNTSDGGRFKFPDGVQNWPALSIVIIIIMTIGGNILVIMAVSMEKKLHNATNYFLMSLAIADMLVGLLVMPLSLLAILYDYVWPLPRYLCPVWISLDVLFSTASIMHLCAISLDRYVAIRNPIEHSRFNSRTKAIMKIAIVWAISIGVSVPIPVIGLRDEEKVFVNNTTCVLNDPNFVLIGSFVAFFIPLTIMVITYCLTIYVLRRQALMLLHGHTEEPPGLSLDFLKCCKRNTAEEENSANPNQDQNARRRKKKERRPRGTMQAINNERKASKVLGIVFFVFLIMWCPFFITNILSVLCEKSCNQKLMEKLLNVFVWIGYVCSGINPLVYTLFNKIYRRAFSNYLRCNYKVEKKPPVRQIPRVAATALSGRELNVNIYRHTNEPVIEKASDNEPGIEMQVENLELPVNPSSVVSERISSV
Method: To evaluate in radioligand binding assays the activity of compounds of the invention, human recombinant serotonin (5-Hydroxytryptamine) 5-HT2C receptor expressed in Chinese hamster ovary (CHO-K1) cells (Wolf, W. A. and Schutz, J. S., J. Neurochem. 69:1449, 1997) in a modified Tris-HCl buffer (50 mM Tris-HCl, pH 7.4, 0.1% Ascorbic Acid, 10 μM Pargyline) was used. Compounds of the invention were incubated with 1 nM [^3H]Mesulergine for 60 minutes at 25° C. Non-specific binding was estimated in the presence of 1 μM Mianserin. Receptor proteins were filtered and washed, the filters were then counted to determine [^3H]Mesulergine specifically bound. Compounds were screened at 1 μM or lower, using 1% DMSO as vehicle. Biochemical assay results are presented as the percent inhibition of specific binding in Table 7.

[5] = compound at 1 μM, HEK-293 cells

T1 sequence (P35367 whole entry): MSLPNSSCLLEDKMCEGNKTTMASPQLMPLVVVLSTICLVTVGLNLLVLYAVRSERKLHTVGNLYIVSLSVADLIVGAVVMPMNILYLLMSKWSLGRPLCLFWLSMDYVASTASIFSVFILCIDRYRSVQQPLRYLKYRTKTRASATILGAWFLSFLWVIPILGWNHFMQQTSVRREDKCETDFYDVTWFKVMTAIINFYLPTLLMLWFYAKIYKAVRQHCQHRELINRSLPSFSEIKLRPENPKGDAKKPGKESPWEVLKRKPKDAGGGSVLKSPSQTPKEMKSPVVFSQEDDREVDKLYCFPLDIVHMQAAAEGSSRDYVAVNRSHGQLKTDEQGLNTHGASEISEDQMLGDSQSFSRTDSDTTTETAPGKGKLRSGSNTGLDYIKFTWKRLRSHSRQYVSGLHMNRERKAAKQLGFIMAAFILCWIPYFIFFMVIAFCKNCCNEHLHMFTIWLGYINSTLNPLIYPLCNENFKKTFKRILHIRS
T2 sequence (P25021 whole entry): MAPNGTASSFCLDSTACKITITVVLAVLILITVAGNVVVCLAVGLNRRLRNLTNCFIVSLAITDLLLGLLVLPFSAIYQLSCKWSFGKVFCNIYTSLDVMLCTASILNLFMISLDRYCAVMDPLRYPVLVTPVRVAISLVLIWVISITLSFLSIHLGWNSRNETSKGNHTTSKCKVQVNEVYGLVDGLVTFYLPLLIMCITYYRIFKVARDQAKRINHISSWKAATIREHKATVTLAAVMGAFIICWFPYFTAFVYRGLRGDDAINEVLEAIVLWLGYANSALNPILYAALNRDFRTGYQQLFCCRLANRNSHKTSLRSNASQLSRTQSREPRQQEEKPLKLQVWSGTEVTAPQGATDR

Structure (SMILES)	inhibition at 1 µM ([1]; compound at 1 μM, CHO cells) [%]	inhibition at 1 µM ([2]; compound at 1 μM, CHO K1 cells) [%]	inhibition at 1 µM [3, 5] [%]	inhibition at 1 µM ([4]; compound at 1 μM, CHO-K1 cells) [%]	inhibition at 1 µM [1] [%]	inhibition at 1 µM [2] [%]	inhibition at 1 µM [3] [%]	inhibition at 1 µM [4] [%]
CCOC(=O)CCn1c2c(c3cc(C)ccc31)CN(C)CC2 [CD1, ethyl 3-(1,2,3,4-tetrahydro-2,8-dimethylpyrido[4,3-b]indol-5-yl)propanoate]	101	35	54	93				
CCOC(=O)CCn1c2c(c3cc(Cl)ccc31)CN(C)CC2 [CD17, ethyl 3-(8-chloro-1,2,3,4-tetrahydro-2-methylpyrido[4,3-b]indol-5-yl)propanoate]	100	46	70	96				
CN1CCc2c(c3cc(Cl)ccc3n2CC(=O)O)C1 [CD46, 2-(8-chloro-1,2,3,4-tetrahydro-2-methylpyrido[4,3-b]indol-5-yl)acetic acid]	69	-3	10	30				
Cc1ccc2c(c1)c1c(n2CCC(=O)O)CCN(C)C1 [CD47, 3-(1,2,3,4-tetrahydro-2,8-dimethylpyrido[4,3-b]indol-5-yl)propanoic acid]	25	16	6	25				
CN1CCc2c(c3cc(Cl)ccc3n2CCC(=O)O)C1 [CD55, 3-(8-chloro-1,2,3,4-tetrahydro-2-methylpyrido[4,3-b]indol-5-yl)propanoic acid]	22	-2	14	11				
CCOC(=O)Cn1c2c(c3cc(C)ccc31)CN(C)CC2 [CD57, ethyl 2-(1,2,3,4-tetrahydro-2,8-dimethylpyrido[4,3-b]indol-5-yl)acetate]	100	28	39	96				
Cc1ccc2c(c1)c1c(n2CC(=O)O)CCN(C)C1 [CD58, 2-(1,2,3,4-tetrahydro-2,8-dimethylpyrido[4,3-b]indol-5-yl)acetic acid]	5	5	0	-19				
Cc1ccc2c(c1)c1c(n2CC#N)CCN(C)C1 [CD61, 2-(1,2,3,4-tetrahydro-2,8-dimethylpyrido[4,3-b]indol-5-yl)acetonitrile]	98	15	74	73				
Cc1ccc2c(c1)c1c(n2CCN)CCN(C)C1 [CD62, 2-(1,2,3,4-tetrahydro-2,8-dimethylpyrido[4,3-b]indol-5-yl)ethanamine]	44	65	34	28				
C#CCn1c2c(c3cc(C)ccc31)CN(C)CC2 [CD73, 2,8-dimethyl-5-(prop-2-ynyl)-2,3,4,5-tetrahydro-1H-pyrido[4,3-b]indole]	96	19	57	92				
CN1CCc2c(c3cc(Cl)ccc3n2CCCO)C1 [CD87, 3-(8-chloro-2-methyl-3,4-dihydro-1H-pyrido[4,3-b]indol-5(2H)-yl)propan-1-ol]	97	18	75	79				
CN1CCc2c(c3cc(Cl)ccc3n2CCBr)C1 [CD88, 5-(2-bromoethyl)-8-chloro-2-methyl-2,3,4,5-tetrahydro-1H-pyrido[4,3-b]indole]					98	64	94	84
CN1CCc2c(c3cc(Cl)ccc3n2CCO)C1 [CD89, 2-(8-chloro-2-methyl-3,4-dihydro-1H-pyrido[4,3-b]indol-5(2H)-yl)ethanol]	92	14	69	84				
Cc1ccc2c(c1)c1c(n2CCO)CCN(C)C1 [CD90, 2-(2,8-dimethyl-3,4-dihydro-1H-pyrido[4,3-b]indol-5(2H)-yl)ethanol]	60	11	23	91				
Cc1ccc2c(c1)c1c(n2CCBr)CCN(C)C1 [CD91, 5-(2-bromoethyl)-2,8-dimethyl-2,3,4,5-tetrahydro-1H-pyrido[4,3-b]indole]	98	65	88	98				
Cc1ccc2c(c1)c1c(n2CCC#N)CCN(C)C1 [CD92, 3-(2,8-dimethyl-3,4-dihydro-1H-pyrido[4,3-b]indol-5(2H)-yl)propanenitrile]	99	8	78	61				
CN1CCc2c(c3cc(Cl)ccc3n2CCC#N)C1 [CD94, 3-(8-chloro-2-methyl-3,4-dihydro-1H-pyrido[4,3-b]indol-5(2H)-yl)propanenitrile]	97	2	74	71				
CNC(=O)CCn1c2c(c3cc(C)ccc31)CN(C)CC2 [Compound 1, 3-(1,2,3,4-tetrahydro-2,8-dimethylpyrido[4,3-b]indol-5-yl)-N-methylpropanamide]	34	8	20	20				
Cc1ccc2c(c1)c1c(n2CCNC(=O)C2CCCNC2)CCN(C)C1 (stereo not drawn) [Compound 9, N-(2-(1,2,3,4-tetrahydro-2,8-dimethylpyrido[4,3-b]indol-5-yl)ethyl)piperidine-3-carboxamide]		-44	11	29				
